Experimental findings from patent US5486469A, “Thermostable Fervidobacterium pullulanases” (Novo Nordisk A/S, priority 1991, dated 1996) are described below.

The test deals with T1, Fervidobacterium sp. Ven 5, DSM 6204 pullulanase, purified native enzyme (Fervidobacterium pennivorans, UniProt Q9XDB5).
T1 construct: Ven 5; single SDS-PAGE band of 78 kDa; not the E. coli clone PL2125
T1 sequence (Q9XDB5 29-849): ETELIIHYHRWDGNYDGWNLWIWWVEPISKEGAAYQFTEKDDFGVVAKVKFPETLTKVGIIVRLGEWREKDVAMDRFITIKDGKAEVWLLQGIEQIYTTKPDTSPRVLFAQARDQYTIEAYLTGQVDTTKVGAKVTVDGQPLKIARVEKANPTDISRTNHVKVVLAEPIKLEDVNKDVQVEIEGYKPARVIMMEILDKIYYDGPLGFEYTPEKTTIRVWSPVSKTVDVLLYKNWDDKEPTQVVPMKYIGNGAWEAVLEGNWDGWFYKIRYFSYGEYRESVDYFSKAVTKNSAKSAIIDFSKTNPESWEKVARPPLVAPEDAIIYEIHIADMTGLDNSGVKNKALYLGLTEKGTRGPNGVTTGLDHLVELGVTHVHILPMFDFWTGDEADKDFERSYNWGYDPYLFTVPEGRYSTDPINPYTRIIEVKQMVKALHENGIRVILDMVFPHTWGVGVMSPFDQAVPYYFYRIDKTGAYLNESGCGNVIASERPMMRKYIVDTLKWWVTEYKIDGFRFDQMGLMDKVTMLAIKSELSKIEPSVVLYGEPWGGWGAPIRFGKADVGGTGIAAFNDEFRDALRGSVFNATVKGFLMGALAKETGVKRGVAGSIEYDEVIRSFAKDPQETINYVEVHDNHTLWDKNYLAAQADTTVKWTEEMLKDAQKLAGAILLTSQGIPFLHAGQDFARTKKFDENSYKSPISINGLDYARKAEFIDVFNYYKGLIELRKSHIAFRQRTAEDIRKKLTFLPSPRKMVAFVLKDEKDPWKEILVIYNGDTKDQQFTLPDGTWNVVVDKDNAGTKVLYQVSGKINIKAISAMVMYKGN
Kind of test: Influence of cyclodextrins and EDTA on pullulytic activity (reducing sugars liberated from pullulan). Type of test: biochemical. To be noted: for Influence on the pullulytic activity (in words): up to 5 mM. On the procedure:
Pullulanase activity was measured by determining the amount of reducing sugars liberated during incubation with pullulan at 85° C. and pH 6.0. The activity of 1 U of pullulanase was defined as that amount of enzyme which liberates 1 μmol of reducing sugar per minute using maltose as a standard. The enzymatic reactions were conducted in 50 mM sodium-phosphate buffer, pH 6.0, the concentration of the substrate was 0.5% (w/v).
The reaction mixture was prepared by adding 50 μl enzyme solution to 200 μl substrate solution. The mixture was incubated at 85° C. for 5 minutes, cooled and diluted with 2.5 ml water. After incubation 250 μl dinitrosalicylic acid reagent (i.e. dinitrosalicylic acid 1 g, 2 N NaOh 20 ml, K-Na-tartrate×4 H2 O 30 g, and distilled water 100 ml) were added. The optical density was measured at 546 nm against a mixture which was not incubated.
6) Influence of metal ions,
The concentration of inhibitors was:
Metal ions and cyclodextrins
The purified pullulanase obtained according to Ex. 2 was subjected to characterization using the method for analyzing pullulanase activity described in Ex. 1.
To investigate the influence of metal ions, cyclodextrins and various glucose polymers on the activity of the pullulanase the purified enzyme was incubated with a 0.5% pullulan solution (pH 6.0) in the presence of up to 5 mM of metal ions and cyclodextrins. Amylose, starch, glycogen, pullulan and branched oligosaccharides were added in concentrations of up to 0.05%.

[1] abbreviates: pH 6, read-out: Activity (%) of pullulanase in the presence of inhibitor.

Like-named read-outs stand apart in the source and are kept apart here.

In the case of `O=C(O)CN(CCN(CC(=O)O)CC(=O)O)CC(=O)O` [EDTA], the inhibition at 5000 µM under setting [1] turned out to be 100%. Further, the “Influence on the pullulytic activity (in words)” value (0.5% pullulan solution, pH 6.0) was “did not influence the pullulytic activity”.
The like results for `OCC1OC2OC3C(CO)OC(OC4C(CO)OC(OC5C(CO)OC(OC6C(CO)OC(OC7C(CO)OC(OC1C(O)C2O)C(O)C7O)C(O)C6O)C(O)C5O)C(O)C4O)C(O)C3O` (stereo not drawn) [α-Cyclodextrin] were, in that order, 57% and “decreased the activity of the enzyme slightly”.
For the compound `OCC1OC2OC3C(CO)OC(OC4C(CO)OC(OC5C(CO)OC(OC6C(CO)OC(OC7C(CO)OC(OC8C(CO)OC(OC1C(O)C2O)C(O)C8O)C(O)C7O)C(O)C6O)C(O)C5O)C(O)C4O)C(O)C3O` (stereo not drawn) [β-Cyclodextrin], under “5 mM inhibitor, 0.5% pullulan solution, pH 6.0, 1.0 U/ml pullulanase, no inhibitor = 100, read-out: Activity (%) of pullulanase in the presence of inhibitor”, the inhibition at 5000 µM was 4%. Moreover, the “Influence on the pullulytic activity (in words)” value (0.5% pullulan solution, pH 6.0) is given as “inhibited completely”.
